Test results taken from patent US11793849B2, “Method of Chinese herbal medicine extract used for treating multiple diseases caused by drug resistant bacteria infection” (priority 2016, dated 2023).

What was measured:
ATCC27853 = assay: MIC determination, control strain; assay type: cell-based
Description: Determination methods of a Minimal Inhibitory Concentration (MIC) and a Minimum Bactericidal Concentration (MBC) of a test product: the MIC and the MBC of the Pithecellobium clypearia Benth water or ethanol extract to the MDRAB are determined by a microdilution broth method.

MDRAB = assay: MIC determination, microdilution broth method; assay type: cell-based, Acinetobacter baumannii
Description: Determination methods of a Minimal Inhibitory Concentration (MIC) and a Minimum Bactericidal Concentration (MBC) of a test product: the MIC and the MBC of the Pithecellobium clypearia Benth water or ethanol extract to the MDRAB are determined by a microdilution broth method. And it is operated by referring to the microdilution broth method recommended by National Committee for Clinical Laboratory Standards (NCCLS).

[1] = single use, 20 MDRABs, EA=10% ethanol extract
[2] = single use, 20 MDRABs, EA=water extract
[3] = single use, 20 MDRABs, section of the 60% ethanol extract
[4] = single use, 20 MDRABs, section of the 95% ethanol extract

## Polymycin B [POLB]
ATCC27853; EA=10% ethanol extract
  MIC: 1 µg/mL
ATCC27853; EA=60% ethanol extract
  MIC: 1 µg/mL
ATCC27853; EA=95% ethanol extract
  MIC: 1 µg/mL
ATCC27853; EA=water extract
  MIC: 1 µg/mL
MDRAB; MDRABs, EA=60% ethanol extract
  MIC50: 4 µg/mL
  MIC90: 16 µg/mL
  MIC Range: 0.5 to 64 µg/mL
MDRAB; MDRABs, EA=95% ethanol extract
  MIC50: 4 µg/mL
  MIC90: 16 µg/mL
  MIC Range: 0.5 to 64 µg/mL
MDRAB; [1]
  MIC50: 4 µg/mL
  MIC90: 16 µg/mL
  MIC Range: 0.5 to 64 µg/mL
MDRAB; [2]
  MIC50: 4 µg/mL
  MIC90: 16 µg/mL
  MIC Range: 0.5 to 64 µg/mL
MDRAB; [3]
  MIC50: 4 µg/mL
  MIC90: 16 µg/mL
MDRAB; [4]
  MIC50: 4 µg/mL
  MIC90: 16 µg/mL
MDRAB; strain A1, EA=60% ethanol extract
  MIC: 8 µg/mL
MDRAB; strain A1, EA=95% ethanol extract
  MIC: 8 µg/mL
MDRAB; strain A1, single use, EA=10% ethanol extract
  MIC: 8 µg/mL
MDRAB; strain A1, single use, EA=water extract
  MIC: 8 µg/mL
MDRAB; strain A2, EA=60% ethanol extract
  MIC: 2 µg/mL
MDRAB; strain A2, EA=95% ethanol extract
  MIC: 2 µg/mL
MDRAB; strain A2, single use, EA=10% ethanol extract
  MIC: 2 µg/mL
MDRAB; strain A2, single use, EA=water extract
  MIC: 2 µg/mL
MDRAB; strain A3, EA=60% ethanol extract
  MIC: 2 µg/mL
MDRAB; strain A3, EA=95% ethanol extract
  MIC: 2 µg/mL
MDRAB; strain A3, single use, EA=10% ethanol extract
  MIC: 2 µg/mL
MDRAB; strain A3, single use, EA=water extract
  MIC: 2 µg/mL
MDRAB; strain A4, EA=60% ethanol extract
  MIC: 2 µg/mL
MDRAB; strain A4, EA=95% ethanol extract
  MIC: 2 µg/mL
MDRAB; strain A4, single use, EA=10% ethanol extract
  MIC: 2 µg/mL
MDRAB; strain A4, single use, EA=water extract
  MIC: 2 µg/mL
MDRAB; strain A5, EA=60% ethanol extract
  MIC: 4 µg/mL
MDRAB; strain A5, EA=95% ethanol extract
  MIC: 4 µg/mL
MDRAB; strain A5, single use, EA=10% ethanol extract
  MIC: 4 µg/mL
MDRAB; strain A5, single use, EA=water extract
  MIC: 4 µg/mL
MDRAB; strain A6, EA=60% ethanol extract
  MIC: 8 µg/mL
MDRAB; strain A6, EA=95% ethanol extract
  MIC: 8 µg/mL
MDRAB; strain A6, single use, EA=10% ethanol extract
  MIC: 8 µg/mL
MDRAB; strain A6, single use, EA=water extract
  MIC: 8 µg/mL
MDRAB; strain A7, EA=60% ethanol extract
  MIC: 4 µg/mL
MDRAB; strain A7, EA=95% ethanol extract
  MIC: 4 µg/mL
MDRAB; strain A7, single use, EA=10% ethanol extract
  MIC: 4 µg/mL
MDRAB; strain A7, single use, EA=water extract
  MIC: 4 µg/mL
MDRAB; strain A8, EA=60% ethanol extract
  MIC: 8 µg/mL
MDRAB; strain A8, EA=95% ethanol extract
  MIC: 8 µg/mL
MDRAB; strain A8, single use, EA=10% ethanol extract
  MIC: 8 µg/mL
MDRAB; strain A8, single use, EA=water extract
  MIC: 8 µg/mL
MDRAB; strain A9, EA=60% ethanol extract
  MIC: 1 µg/mL
MDRAB; strain A9, EA=95% ethanol extract
  MIC: 1 µg/mL
MDRAB; strain A9, single use, EA=10% ethanol extract
  MIC: 1 µg/mL
MDRAB; strain A9, single use, EA=water extract
  MIC: 1 µg/mL
MDRAB; strain A10, EA=60% ethanol extract
  MIC: 32 µg/mL
MDRAB; strain A10, EA=95% ethanol extract
  MIC: 32 µg/mL
MDRAB; strain A10, single use, EA=10% ethanol extract
  MIC: 32 µg/mL
MDRAB; strain A10, single use, EA=water extract
  MIC: 32 µg/mL
MDRAB; strain A11, EA=60% ethanol extract
  MIC: 16 µg/mL
MDRAB; strain A11, EA=95% ethanol extract
  MIC: 16 µg/mL
MDRAB; strain A11, single use, EA=10% ethanol extract
  MIC: 16 µg/mL
MDRAB; strain A11, single use, EA=water extract
  MIC: 16 µg/mL
MDRAB; strain A12, EA=60% ethanol extract
  MIC: 2 µg/mL
MDRAB; strain A12, EA=95% ethanol extract
  MIC: 2 µg/mL
MDRAB; strain A12, single use, EA=10% ethanol extract
  MIC: 2 µg/mL
MDRAB; strain A12, single use, EA=water extract
  MIC: 2 µg/mL
MDRAB; strain A13, EA=60% ethanol extract
  MIC: 2 µg/mL
MDRAB; strain A13, EA=95% ethanol extract
  MIC: 2 µg/mL
MDRAB; strain A13, single use, EA=10% ethanol extract
  MIC: 2 µg/mL
MDRAB; strain A13, single use, EA=water extract
  MIC: 2 µg/mL
MDRAB; strain A14, EA=60% ethanol extract
  MIC: 0.5 µg/mL
MDRAB; strain A14, EA=95% ethanol extract
  MIC: 0.5 µg/mL
MDRAB; strain A14, single use, EA=10% ethanol extract
  MIC: 0.5 µg/mL
MDRAB; strain A14, single use, EA=water extract
  MIC: 0.5 µg/mL
MDRAB; strain A15, EA=60% ethanol extract
  MIC: 2 µg/mL
MDRAB; strain A15, EA=95% ethanol extract
  MIC: 2 µg/mL
MDRAB; strain A15, single use, EA=10% ethanol extract
  MIC: 2 µg/mL
MDRAB; strain A15, single use, EA=water extract
  MIC: 2 µg/mL
MDRAB; strain A16, EA=60% ethanol extract
  MIC: 4 µg/mL
MDRAB; strain A16, EA=95% ethanol extract
  MIC: 4 µg/mL
MDRAB; strain A16, single use, EA=10% ethanol extract
  MIC: 4 µg/mL
MDRAB; strain A16, single use, EA=water extract
  MIC: 4 µg/mL
MDRAB; strain A17, EA=60% ethanol extract
  MIC: 64 µg/mL
MDRAB; strain A17, EA=95% ethanol extract
  MIC: 64 µg/mL
MDRAB; strain A17, single use, EA=10% ethanol extract
  MIC: 64 µg/mL
MDRAB; strain A17, single use, EA=water extract
  MIC: 64 µg/mL
MDRAB; strain A18, EA=60% ethanol extract
  MIC: 4 µg/mL
MDRAB; strain A18, EA=95% ethanol extract
  MIC: 4 µg/mL
MDRAB; strain A18, single use, EA=10% ethanol extract
  MIC: 4 µg/mL
MDRAB; strain A18, single use, EA=water extract
  MIC: 4 µg/mL
MDRAB; strain A19, EA=60% ethanol extract
  MIC: 4 µg/mL
MDRAB; strain A19, EA=95% ethanol extract
  MIC: 4 µg/mL
MDRAB; strain A19, single use, EA=10% ethanol extract
  MIC: 4 µg/mL
MDRAB; strain A19, single use, EA=water extract
  MIC: 4 µg/mL
MDRAB; strain A20, EA=60% ethanol extract
  MIC: 2 µg/mL
MDRAB; strain A20, EA=95% ethanol extract
  MIC: 2 µg/mL
MDRAB; strain A20, single use, EA=10% ethanol extract
  MIC: 2 µg/mL
MDRAB; strain A20, single use, EA=water extract
  MIC: 2 µg/mL
